How the values were obtained:
[1] = test system: human cervical carcinoma cell line (HeLa); assay: MTT cytotoxic assay, HeLa; format: cell-based; settings: MTT, 48 h exposure, read-out: IC50 HeLa
Protocol: The in vitro antiproliferative activity of DAA derivatives (1–5, 6a–k, 7a–k) were evaluated by MTT assay against human hepatocarcinoma cell line (SMMC-7721), human breast cancer cell line (MDA-MB-231), human cervical carcinoma cell line (HeLa), mouse colon cancer cell line (CT-26) and human normal hepatocyte cell line (QSG-7701). Nocodazole was co-assayed as the positive control and DMEM culture medium containing 0.1% DMSO was used as negative control. The results of the tested compounds expressed as IC50 values (concentration required to inhibit tumor cell proliferation by 50%) were presented in Table 1.
The human hepatocarcinoma cell line (SMMC-7721), human breast cancer cell line (MDA-MB-231), human cervical carcinoma cell line (HeLa), mouse colon cancer cell line (CT-26) and human normal hepatocyte cells (QSG-7701) used in this study were all obtained from Keygene Biotech., China. These cell lines were maintained in DMEM medium supplemented with 10% heat-inactivated fetal bovine serum in a humidified atmosphere of 5% CO2 at 37 °C.
The in vitro cytotoxic activities of the benzimidazole derivatives of dehydroabietic acid were evaluated against tested cell lines via the MTT colorimetric method. Briefly, different tumor cells were grown in DMEM medium supplemented with 10% fetal bovine serum, penicillin (100 U mL^−1), and streptomycin (50 μg mL^−1). Cells were harvested at log phase of growth and seeded in 96-well plates (100 μL per well at a density of 2 × 10^5 cells mL^−1). After 24 h incubation at 37 °C and 5% CO2 to allow cell attachment, cultures were exposed to various concentrations of the isolated compounds for 48 h. Finally, MTT solution (2.5 mg mL^−1 in PBS) was added (40 μL per well). Plates were further incubated for 4 h at 37 °C, and the formazan crystals formed were dissolved by adding 150 μL per well of DMSO. Absorption at 570 nm was measured with an ELISA plate reader. The results were expressed as IC50 values with standard deviations, which was defined as the concentration at which 50% survival of cells was discerned. Nocodazole was co-assayed as positive control.

[2] = test system: intracellular microtubule system of SMMC-7721 cells; assay: Immunofluorescence staining of microtubule network; format: cell-based, human; settings: 24 h (Fig. 4 legend)
Protocol: Since the tubulin polymerization inhibitory effect of compound 6j has been verified, we subsequently performed the immunofluorescent staining assay to observe its effect on the intracellular microtubule system of SMMC-7721 cells.
[…] After being washed with phosphate buffer solution (PBS) and fixed in 4% paraformaldehyde for 15 min, the cells were permeabilized with 0.5% Triton X-100 for 15 min and blocked for 30 min with 10% goat serum. Then, the cells were incubated with mouse anti-tubulin antibody (ZSGB-Bio, China) at 4 °C overnight and incubated with goat anti-mouse IgG/Alexa-Fluor 488 antibody (ZSGB-Bio, China) at room temperature for 1 h. After the nuclei were stained with Hoechst 33258 (Beyotime Biotech., China) in the dark at room temperature for 30 min, the samples were immediately visualized on a Zeiss LSM 570 laser scanning confocal microscope (Carl Zeiss, Germany).

[3] = test system: SMMC-7721 cells; assay: JC-1 mitochondrial membrane potential assay; format: cell-based, human; settings: 24 h, control 6.47%
From the text: As the most important organelle, mitochondria play key roles not only on supplying metabolic energy in the form of ATP, but also on regulating the signal transmission during the apoptosis of cancer cells.[46] Besides, the mitochondrial dysfunction can be aroused under high ROS exposure, leading to the collapse of mitochondrial membrane potential (ΔΨm), which is a characteristic phenomenon of early apoptosis.[47] In order to further investigate the apoptosis-inducing effect of target compound 6j, mitochondrial membrane potential changes were detected using the fluorescent probe JC-1. As a lipophilic cationic dye, JC-1 can easily pass through the plasma membrane into cells and accumulates in actively respiring mitochondria. In control cells, JC-1 can form aggregates in mitochondrial matrix and present high red fluorescence. However, in apoptotic cells whose mitochondrial potential has collapsed, JC-1 exists in cytosol as a monomer which emits green fluorescence. SMMC-7721 cells treated with different concentrations (0, 0.1, 0.2, 0.5, 1.0 and 2.0 μM) of compound 6j for 24 h were stained with JC-1 and then subjected to flow cytometry.
The JC-1 mitochondrial membrane potential assay kit (Keygene Biotech., China) was employed to measure mitochondrial depolarization in SMMC-7721 cells. Briefly, cells cultured in six-well plates after indicated treatments were incubated with an equal volume of JC-1 staining solution (5 μg mL^−1) at 37 °C for 20 min and rinsed twice with PBS. Mitochondrial membrane potentials were monitored by determining the relative amounts of dual emissions from mitochondrial JC-1 monomers or aggregates using flow cytometry (Becton-Dickinson FACSCalibur, New York, USA). Mitochondrial depolarization is indicated by an increase in the percentage of cells with low ΔΨm (green fluorescence, lower right quadrant) compared with cells with high ΔΨm (red fluorescence, upper right quadrant).

[4] = test system: SMMC-7721 cells; assay: Cell cycle analysis (PI staining, flow cytometry); format: cell-based, human; settings: 24 h; for percentage of cells in G2/M phase: control 8.86%; for percentage of cells in S phase: control 25.21%; for percentage of cells in G0/G1 phase: control 65.93%
Protocol: Flow cytometry was used to analyze the effects of the DAA derivative on cell growth and division. SMMC-7721 cells were treated with different concentrations of compound 6j (0, 0.1, 0.2 and 0.5 μM) for 24 h. Cell cycle distribution was investigated by flow cytometric analysis after staining the DNA of the treated cells with propidium iodide (PI).
For the flow cytometric analysis of the DNA content, SMMC-7721 cells were seeded in 6-well plates (5 × 10^5 cells per well) and incubated in the absence or presence of compound 6j at indicated concentrations for 24 h. After treatment, cells were detached with 0.25% trypsin, harvested by centrifugation, washed twice with ice-cold PBS and then fixed and permeabilized with ice-cold ethanol at 4 °C overnight. Ethanol was removed by centrifugation, and the cells were washed twice and resuspended in ice-cold PBS. After this, the cells were treated with 100 μL of 100 μg mL^−1 RNAse A at 37 °C for 30 min, followed by incubation with 400 μL of 1 mg mL^−1 DNA staining solution propidium iodide (PI) in the dark at 4 °C for 30 min. The samples were then analyzed for their DNA content by flow cytometry (Becton-Dickinson FACSCalibur, New York, USA).

In the case of `COC(=O)[C@]1(C)CCC[C@]2(C)c3cc(Br)c4nc(-c5ccc6[nH]ccc6c5)[nH]c4c3CCC12` (stereo partly drawn) [Compound 6j, Methyl 2′-(1H-indol-5-yl)-12-bromo-13,14-imidazolyl-deisopropyl-dehydroabietate], the IC50 [1] is reported as 0.23 ± 0.05 µM, the “effect on the microtubule network” value ([2]; 0.5 μM) is reported as “most microtubule networks disappeared” and the “effect on the microtubule network” value ([2]; 0.1–0.5 μM) is reported as “the meshy microtubule networks shrank around the nuclei in a dose-dependent manner”. For the same compound, the “percentage of cells with low ΔΨm (lower right quadrant)” value ([3]; 0.1 μM) was 11.35%, the “percentage of cells with low ΔΨm (lower right quadrant)” value ([3]; 0.2 μM) was 15.66% and the “percentage of cells with low ΔΨm (lower right quadrant)” value ([3]; 0.5 μM) was 20.16%. For the same compound, the “percentage of cells with low ΔΨm (lower right quadrant)” value ([3]; 1.0 μM) was 31.30%, the “percentage of cells with low ΔΨm (lower right quadrant)” value ([3]; 2.0 μM) was 53.12% and the “percentage of cells in G2/M phase” value ([4]; 0.1 μM) was 13.65%. The “percentage of cells in S phase” value ([4]; 0.1 μM) was 29.52%, the “percentage of cells in G0/G1 phase” value ([4]; 0.1 μM) was 56.83% and the “percentage of cells in G2/M phase” value ([4]; 0.2 μM) was 18.37%. The “percentage of cells in S phase” value ([4]; 0.2 μM) was 29.34%, the “percentage of cells in G0/G1 phase” value ([4]; 0.2 μM) was 52.28% and the “percentage of cells in G2/M phase” value ([4]; 0.5 μM) was 26.42%. For the same compound, the “percentage of cells in S phase” value ([4]; 0.5 μM) was 24.27%, the “percentage of cells in G0/G1 phase” value ([4]; 0.5 μM) was 49.30% and the melting point was 179 to 181 °C.
